Laboratory results: patent publication US12275732B2, “Cyclic compounds as receptor modulating therapeutics and methods and uses thereof” (Bionomics Limited, priority 2018, dated 2025)

Assay: A2B permeability (Papp) in MDCK-MDR1 cell monolayers
Type: in vitro ADME
Settings: dog, MDCK-MDR1 monolayer, apical to basolateral (A-B), 10 μM test compound, HBSS pH 7.4, duplicate
Procedure: Permeability Data for Compounds was Collected Using the Following Experimental Procedure:
MDCK-MDR1 cells obtained from the NIH (Rockville, Md., USA) are used between passage numbers 6-30. Cells are seeded onto Millipore Multiscreen Transwell plates at 3.4×10^5 cells/cm2. The cells are cultured in DMEM and media is changed on day 3. On day 4 the permeability study is performed. Cell culture and assay incubations are carried out at 37° C. in an atmosphere of 5% CO2 with a relative humidity of 95%. On the day of the assay, the monolayers are prepared by rinsing both apical and basolateral surfaces twice with Hanks Balanced Salt Solution (HBSS) at the desired pH warmed to 37° C. Cells are then incubated with HBSS at the desired pH in both apical and basolateral compartments for 40 min to stabilise physiological parameters.
The dosing solutions are prepared by diluting test compound with assay buffer to give a final test compound concentration of 10 μM (final DMSO concentration of 1% v/v). The fluorescent integrity marker lucifer yellow is also included in the dosing solution. Analytical standards are prepared from test compound DMSO dilutions and transferred to buffer, maintaining a 1% v/v DMSO concentration.
Typical assay buffer is composed of supplemented HBSS pH 7.4 but a range of other buffers and pH values can be used.
For assessment of A-B permeability, HBSS is removed from the apical compartment and replaced with test compound dosing solution. The apical compartment insert is then placed into a companion plate containing fresh buffer (containing 1% v/v DMSO). For assessment of B-A permeability, HBSS is removed from the companion plate and replaced with test compound dosing solution. Fresh buffer (containing 1% v/v DMSO) is added to the apical compartment insert, which is then placed into the companion plate.
At 60 min the apical compartment inserts and the companion plates are separated and apical and basolateral samples diluted for analysis.
Test compound permeability is assessed in duplicate. Compounds of known permeability characteristics are run as controls on each assay plate.
Test and control compounds are quantified by LC-MS/MS cassette analysis using a 7-point calibration with appropriate dilution of the samples. Cyprotex generic analytical conditions are used. The starting concentration (CO) is determined from the dosing solution and the experimental recovery calculated from CO and both apical and basolateral compartment concentrations.
The integrity of the monolayer throughout the experiment is checked by monitoring lucifer yellow permeation using fluorimetric analysis. Lucifer yellow permeation is high if monolayers have been damaged. If a lucifer yellow Papp value is above a pre-defined threshold in one well, but the derived Papp result for test compound or marker compound in that well is qualitatively similar to that determined in the remaining replicate well (within the lucifer yellow threshold) then, based upon the scientific judgment of the responsible scientist, the cell monolayer may be considered acceptable. If this is not the case, then the result from the affected monolayer is excluded and an n=1 result is reported, or the compound may be retested. If lucifer yellow Papp values are above the threshold in both replicate wells for a test compound, the compound is re-tested. If this re-occurs upon repeat in both wells then toxicity or inherent fluorescence of the test compound is assumed. No further experiments are performed in this instance.
The permeability coefficient (Papp) for each compound is calculated from the following equation: […]
Where dQ/dt is the rate of permeation of the drug across the cells, CO is the donor compartment concentration at time zero and A is the area of the cell monolayer. C0 is obtained from analysis of the dosing solution.

Row | SMILES | Papp A→B at 60 min, 10 μM
1 | CCn1cc(C(=O)N2CC3(CCOCC3)C2)c(=O)c2cc(OC3Cc4ccccc4C3)cnc21 [Example 23, 1-Ethyl-6-indan-2-yloxy-3-(7-oxa-2-azaspiro[3.5]nonane-2-carbonyl)-1,8-naphthyridin-4-one] | 1.24 ×10⁻⁶ cm/s
2 | CCn1cc(C(=O)N2C[C@H](C)O[C@@H](C)C2)c(=O)c2cc(OC3Cc4ccccc4C3)cnc21 [Example 6, 3-[(2S,6S)-2,6-dimethylmorpholine-4-carbonyl]-1-ethyl-6-indan-2-yloxy-1,8-naphthyridin-4-one] | 1.7 ×10⁻⁶ cm/s
3 | CCn1cc(C(=O)N2C[C@@H](C)O[C@@H](C)C2)c(=O)c2cc(OC3Cc4ccccc4C3)cnc21 [Example 5, 3-[(2R,6S)-2,6-dimethylmorpholine-4-carbonyl]-1-ethyl-6-indan-2-yloxy-1,8-naphthyridin-4-one] | 3.41 ×10⁻⁶ cm/s
4 | CCn1cc(C(=O)N2CCOCC2)c(=O)c2cc(OC3Cc4ccccc4C3)nnc21 [Example 52, 8-Ethyl-3-indan-2-yloxy-6-(morpholine-4-carbonyl)pyrido[2,3-c]pyridazin-5-one] | 4.78 ×10⁻⁶ cm/s
5 | CCn1cc(C(=O)N2CCOCC2)c(=O)c2cc(OC3Cc4ccccc4C3)cnc21 [Example 1, 1-Ethyl-6-indan-2-yloxy-3-(morpholine-4-carbonyl)-1,8-naphthyridin-4-one] | 2.19 ×10⁻⁶ cm/s
6 | CCn1cc(C(=O)N2C3COCC2C3)c(=O)c2cc(OC3Cc4ccccc4C3)cnc21 [Example 16, 1-Ethyl-6-indan-2-yloxy-3-(3-oxa-6-azabicyclo[3.1.1]heptane-6-carbonyl)-1,8-naphthyridin-4-one] | 2.06 ×10⁻⁶ cm/s
7 | CCn1cc(C(=O)N2CC3CCC(C2)O3)c(=O)c2cc(OC3Cc4ccccc4C3)nnc21 [Example 63, 8-Ethyl-3-indan-2-yloxy-6-(8-oxa-3-azabicyclo[3.2.1]octane-3-carbonyl)pyrido[2,3-c]pyridazin-5-one] | 1.55 ×10⁻⁶ cm/s
8 | CCn1cc(C(=O)N2C[C@H]3C[C@@H]2CO3)c(=O)c2cc(OC3Cc4ccccc4C3)cnc21 [Example 17, 1-Ethyl-6-indan-2-yloxy-3-[(1R,4R)-2-oxa-5-azabicyclo[2.2.1]heptane-5-carbonyl]-1,8-naphthyridin-4-one] | 0.87 ×10⁻⁶ cm/s
9 | CCn1cc(C(=O)N2CC(C)(C)OC(C)(C)C2)c(=O)c2cc(OC3Cc4ccccc4C3)cnc21 [Example 8, 1-Ethyl-6-indan-2-yloxy-3-(2,2,6,6-tetramethylmorpholine-4-carbonyl)-1,8-naphthyridin-4-one] | 2.65 ×10⁻⁶ cm/s
10 | CCn1cc(C(=O)N2CC3CCC(C2)O3)c(=O)c2cc(OC3Cc4ccccc4C3)cnc21 [Example 19, 1-Ethyl-6-indan-2-yloxy-3-(8-oxa-3-azabicyclo[3.2.1]octane-3-carbonyl)-1,8-naphthyridin-4-one] | 1.79 ×10⁻⁶ cm/s
11 | CCn1cc(C(=O)N2CCO[C@H](C)C2)c(=O)c2cc(OC3Cc4ccccc4C3)cnc21 [Example 2, 1-Ethyl-6-indan-2-yloxy-3-[(2R)-2-methylmorpholine-4-carbonyl]-1,8-naphthyridin-4-one] | 2.56 ×10⁻⁶ cm/s
12 | CCn1cc(C(=O)N2CCOC(C)(C)C2)c(=O)c2cc(OC3Cc4ccccc4C3)cnc21 [Example 4, 3-(2,2-dimethylmorpholine-4-carbonyl)-1-ethyl-6-indan-2-yloxy-1,8-naphthyridin-4-one] | 1.26 ×10⁻⁶ cm/s
13 | CCn1cc(C(=O)N2CCOCC2)c(=O)c2cc(OC3Cc4ccccc4C3)ncc21 [Example 26, 1-Ethyl-6-indan-2-yloxy-3-(morpholine-4-carbonyl)-1,7-naphthyridin-4-one] | 1.56 ×10⁻⁶ cm/s
14 | CCn1cc(C(=O)N2C3CCCC2COC3)c(=O)c2cc(OC3Cc4ccccc4C3)cnc21 [Example 20, 1-Ethyl-6-indan-2-yloxy-3-(3-oxa-9-azabicyclo[3.3.1]nonane-9-carbonyl)-1,8-naphthyridin-4-one] | 2.01 ×10⁻⁶ cm/s
15 | CCn1cc(C(=O)N2[C@H](C)COC[C@H]2C)c(=O)c2cc(OC3Cc4ccccc4C3)cnc21 [Example 11, 3-[(3R,5R)-3,5-dimethylmorpholine-4-carbonyl]-1-ethyl-6-indan-2-yloxy-1,8-naphthyridin-4-one] | 3.83 ×10⁻⁶ cm/s
16 | CCn1cc(C(=O)N2CC3COCC(C3)C2)c(=O)c2cc(OC3Cc4ccccc4C3)nnc21 [Example 65, 8-Ethyl-3-indan-2-yloxy-6-(3-oxa-7-azabicyclo[3.3.1]nonane-7-carbonyl)pyrido[2,3-c]pyridazin-5-one] | 0.98 ×10⁻⁶ cm/s
17 | CCn1cc(C(=O)N2C3CCC2COC3)c(=O)c2cc(OC3Cc4ccccc4C3)cnc21 [Example 18, 1-Ethyl-6-indan-2-yloxy-3-(3-oxa-8-azabicyclo[3.2.1]octane-8-carbonyl)-1,8-naphthyridin-4-one] | 1.41 ×10⁻⁶ cm/s
18 | CCn1cc(C(=O)N2C[C@@H](C)O[C@H](C)C2)c(=O)c2cc(OC3Cc4ccccc4C3)cnc21 [Example 7, 3-[(2R,6R)-2,6-dimethylmorpholine-4-carbonyl]-1-ethyl-6-indan-2-yloxy-1,8-naphthyridin-4-one] | 1.79 ×10⁻⁶ cm/s
19 | CCn1cc(C(=O)N2[C@H](C)COC[C@@H]2C)c(=O)c2cc(OC3Cc4ccccc4C3)cnc21 [Example 10, 3-[(3R,5S)-3,5-dimethylmorpholine-4-carbonyl]-1-ethyl-6-indan-2-yloxy-1,8-naphthyridin-4-one] | 1.99 ×10⁻⁶ cm/s
